In US8258145B2, “Method of treating brain cancer” (Myrexis, Inc., priority 2005, dated 2012):

Tested on: T-47D
Assay: Caspase cascade activation (caspase activity ratio and potency), fluorogenic N-(Ac-DEVD)-N'-ethoxycarbonyl-R110 substrate
Format: cell-based, Human
Settings: Homo sapiens, T47D; T-47D (24 hr)
Method: Human breast cancer cell lines T-47D and DLD-1 were grown according to media component mixtures designated by American Type Culture Collection+10% FCS (Invitrogen Corporation), in a 5% CO2−95% humidity incubator at 37° C. T-47D and DLD-1 cells were maintained at a cell density between 50 and 80% confluency at a cell density of 0.1 to 0.6×10^6 cells/mL. Cells were harvested at 600×g and resuspended at 0.65×10^6 cells/mL into appropriate media+10% FCS. An aliquot of 22.5 μL of cells was added to a well of a 384-well microtiter plate containing 2.5 μL of a 10% DMSO in RPMI-1640 media solution containing 0.16 to 100 μM of (2-chloro-quinazolin-4-yl)-(4-methoxy-phenyl)-methyl-amine or other test compound (0.016 to 10 μM final). An aliquot of 22.5 μL of cells was added to a well of a 384-well microtiter plate containing 2.5 μL of a 10% DMSO in RPMI-1640 media solution without test compound as the control sample. […] […] The samples were mixed by agitation and incubated at room temperature. Using a fluorescent plate reader (Model SPECTRAfluor Plus, Tecan), an initial reading (T=0) was made approximately 1-2 min after addition of the substrate solution, employing excitation at 485 nm and emission at 530 nm, to determine the background fluorescence of the control sample. After the 3 h incubation, the samples were read for fluorescence as above (T=3 h).
The Relative Fluorescence Unit values (RFU) were used to calculate the sample readings as follows: RFU(T=3h)−Control RFU(T=0)=Net RFU(T=3h)
The activity of caspase cascade activation was determined by the ratio of the net RFU value for (2-chloro-quinazolin-4-yl)-(4-methoxy-phenyl)-methyl-amine or other test compounds to that of control samples. The EC50 (nM) was determined by a sigmoidal dose-response calculation (Prism 3.0, GraphPad Software Inc.).

Compound | EC50
CNc1nc(N(C)c2ccc(N(C)C)cc2)c2ccccc2n1 [Example 47, (2-Methylamino-quinazolin-4-yl)-(4-dimethylaminophenyl)-methylamine] | 29 nM

Same assay, conditions: T-47D (24 hr)

Compound | Caspase activity Ratio (net RFU of test compound to control)
COc1ccc(N(C)c2nc(Cl)nc3ccccc23)cn1 [Example 7, (2-Chloro-quinazolin-4-yl)-(6-methoxy-pyridin-3-yl)-methyl-amine] | 6.7
COc1ccc(N(C)c2nc(CCl)nc3ccccc23)cc1 [Example 22, (2-Chloromethyl-quinazolin-4-yl)-(4-methoxy-phenyl)-methyl-amine] | 6.2
CNc1nc(N(C)c2ccc(N(C)C)cc2)c2ccccc2n1 [Example 47, (2-Methylamino-quinazolin-4-yl)-(4-dimethylaminophenyl)-methylamine] | 3.9
COc1ccc(N(C)c2nc(C)nc3cccc(OC)c23)cc1 [Example 31, (5-Methoxy-2-methyl-quinazolin-4-yl)-(4-methoxy-phenyl)-methyl-amine] | 8.3
Cc1nc(N(C)c2ccc(N(C)C)nc2)c2ccccc2n1 [Example 50, (2-Dimethylamino-pyridine-5-yl)-(2-methyl-quinazolin-4-yl)-methylamine] | 9.0
Cc1nc(N(C)c2ccc(N(C)C)cc2)c2cc([N+](=O)[O-])ccc2n1 [Example 44, (2-Methyl-6-nitroquinazolin-4-yl)-(4-dimethylaminophenyl)-methylamine] | 2.6
CC(=O)N(C)c1nc(N(C)c2ccc(N(C)C)cc2)c2ccccc2n1 [Example 48, [2-(N-Methyl-acetamido)-quinazolin-4-yl]-(4-dimethylaminophenyl)-methylamine] | 2.4
COc1ccc(N(C)c2nc(C)nc3ccc(N(C)C)cc23)cc1 [Example 52, (6-Dimethylamino-2-methyl-quinazolin-4-yl)-(4-methoxy-phenyl)-methylamine] | 6.4
CN(c1ccc([N+](=O)[O-])cc1)c1nc(Cl)nc2ccccc12 [Example 54, (2-Chloro-quinazolin-4-yl)-(4-nitro-phenyl)-methyl-amine] | 7.1

Same assay, conditions: T-47D (48 hr)

Compound | Caspase activity Ratio (net RFU of test compound to control)
COc1ccc(N(C)c2nc(CCl)nc3ccccc23)cc1 [Example 22, (2-Chloromethyl-quinazolin-4-yl)-(4-methoxy-phenyl)-methyl-amine] | 5.7
CCN(c1ccc(OC)cc1)c1nc(Cl)nc2ccccc12 [Example 8, (2-Chloro-quinazolin-4-yl)-ethyl-(4-methoxy-phenyl)-amine] | 6.1
COc1ccc(N(C)c2nc(Cl)nc3cccc(C)c23)cc1 [Example 14, (2-Chloro-5-methyl-quinazolin-4-yl)-(4-methoxy-phenyl)-methyl-amine] | 10.8
